Assay results: patent US20080279923A1, “Use of Microtubule Stabilizing Compounds for the Treatment of Lesions of Cns Axons” (Max-Planck-Gesellschaft zur Forderung de Wissensch, priority 2005, published 2008)
“And” between values parts separate entries of the source, which are not always exact repeats. Equal values may be shown once.

Experiments:
[1] = i.v. in mice; cited from earlier work
rat hippocampal neurons [2] = assay: Process and axon formation during long term incubation with low drug concentrations; assay type: cell-based; conditions: for number of processes per cell: read at 3 DIV; for total neurite length: 3 DIV; for number of processes which exceeded 60 μm: 2 further DIV
Protocol: (§1) Primary hippocampal neurons derived from rat embryos were cultured following the protocol of Goslin and Banker (1991) and de Hoop et al. (1997). In brief, the hippocampi of E18 rats were dissected, trypsinized, and physically dissociated. The cells were then washed in HBSS, and 1.0-1.3×10^5 cells were plated onto poly-lysine-treated glass coverslips in 6 cm petri dishes containing minimal essential medium (MEM) and 10% heat-inactivated horse serum. The cells were kept in 5% CO2 at 36.5° C. After 12-18 hr, the coverslips were transferred to a 6 cm dish containing astrocytes in MEM and N2 supplements.
For long term incubation, 0.1 to 30 nM Taxol (Sigma), 0.1 to 1 μM cytochalasin D (Sigma) or 3 nM to 10 μM Nocodazole (Sigma) were added to culture medium after 1 day in culture, and cells were further incubated at 36.5° C. Drugs were kept as stock solutions in DMSO at −20° C. (Taxol: 5 mM; Cytochalasin D: 10 mM; Nocodazole: 6.67 mM).
To detect proteins by immunohistochemistry, cells were fixed in 4% para-formaldehyde for 15 min at 37° C. (20 min for Tau-1 stainings), aldehyde groups were quenched in 50 mM ammonium chloride for 10 min, and the cells were then extracted with 0.1% Triton X-100 for 3 min.
Length and intensity measurements were done using Scion Image Beta 4.0.2 for MS Windows (based on NIH-image). For length measurements, cVisTec Professional 1.0 (cVisTec, Munich, Germany) was additionally used.
So far we had shown that axonal microtubules have a higher ability to resist depolymerization under harsh microtubule-destabilizing conditions. If there was a putative stability difference in axons and minor neurites, we hypothesized that particular growth conditions should allow formation of axons but not minor neurites. To assess the effect of modest microtubule destabilization on process formation, we treated hippocampal neurons after 1 DIV with low concentrations of Nocodazole. After 2 further DIV under such growth conditions cells were fixed [with 4% PFA/Sucrose] and stained for the axonal marker Tau-1. Using fluorescence microscopy, we evaluated effects on the formation of axons and minor neurites.
To test the influence of microtubule stabilization on axon formation we treated hippocampal neurons after 1 DIV with low concentrations of the microtubule-stabilizing drug Taxol (FIGS. 4A and H). […] Taxol (also known as Paclitaxel) is successfully used as an anti-cancer drug so far as it arrests dividing cells in the G2-M-phase of cell division. Neurons grown in the presence of low concentrations of Taxol were fixed [with 4% PFA/sucrose] after 3 to 7 DIV and stained for the axonal marker Tau-1 or the dendritic marker MAP2. Under control conditions, neurons had formed one axon and several minor neurites (FIGS. 4D and E). […] The number of processes which exceeded 60 μm had increased more than 2-fold by Taxol treatment (DMSO 1.53±0.05, 3 nM Taxol 2.93±0.46, 10 nM Taxol 3.58±0.54) (FIG. 4F). Similarly, the number of cells with more than one Tau-1-positive process went up about 4-fold in a concentration-dependent manner in Taxol-treated neurons (from 20.19±3.19% in DMSO-treated neurons to 80.81±1.71% neurons treated with 10 nM Taxol) (FIG. 4G).

[3] = test system: growth cones of lesioned sciatic nerve axons; assay: Nocodazole application onto lesioned sciatic nerve (growth cone to bulb conversion); assay type: in vivo, GFP-M mice
Protocol: The mice were anesthetized as described. The sciatic nerve was exposed at around 2.5 cm from the DRG cell bodies by a small incision and crushed with forceps for ten seconds. The incision was sutured and the skin stapled. The anesthesia was reversed and the animals were transferred to a heating pad for the following 24 hours.
Sciatic nerve lesion was performed as described. After 24 hours animals were re-anesthetized and 10 μl of 330 μM of nocodazole (Sigma-Aldrich, diluted in 5% DMSO in PBS) or 5% DMSO alone was applied onto lesion site with a pipette. The injury site was closed and animals were perfused 24 hours after nocodazole or DMSO application for staining and imaging.
(§2) The size of retraction bulbs and growth cones was quantified as follows: the maximum diameter of the retraction bulb and growth cone at the tip of the axon was measured and divided by the axon diameter of the same end structure where the axon looked normal.

rat hippocampal neurons [4] = assay: Microtubule stability assay: Nocodazole-induced microtubule retraction in hippocampal neurons; assay type: cell-based; conditions: for cells in which microtubule retraction was significantly higher in minor neurites compared to axons: stage 3 neurons, 5 min
Protocol: as §1
Analyzing short term microtubule depolymerization, the fate of individual neurons was followed. Cells localized on the grid of a Cellocate coverslip were photographed. The coverslip was then transferred into HEPES-buffered HBSS containing Nocodazole and incubated for 5 min at 36.5° C. in the incubator. [As Nocodazole is insoluble in aqueous solutions, special care was taken to ensure equal distribution of Nocodazole in HBSS.] After short term incubation, neurons were PHEM-fixed to eliminate depolymerized tubulin subunits and allow clear visualization of microtubules.
To visualize microtubules clearly, an alternative fixation method (PHEM-fixation) was used if required. To get rid of unpolymerized tubulin subunits, cells were simultaneously fixed and permeabilized for 15 min at 37° C. in PHEM buffer (60 mM PIPES and 25 mM HEPES) containing 3.7% paraformaldehyde, 0.25% glutaraldehyde, 5 mM EGTA, 1 mM MgCl, 3.7% sucrose, and 0.1% Triton X-100 (adapted from Smith, 1994) and quenched as above.
To determine the ratio of acetylated to tyrosinated α-Tubulin, the fluorescence signals of different channels of pictures taken with 63× magnification were compared. In the medial part of each process, the average fluorescence intensity of both acetylated and tyrosinated α-Tubulin was measured in a square of 5×5 pixel and the ratio of the values was determined. For minor neurites of the same cell, the average of the ratios was calculated in polarized neurons and used for comparison to the ratio of the corresponding axon. For unpolarized neurons, the highest ratio was compared to the average of the ratios of the remaining neurites. To measure microtubule retraction after Nocodazole treatment, fixed and stained neurons were relocated on the Cellocate coverslips. Pictures were taken of both the actin cytoskeleton (visualized by staining with Rhodamine-coupled Phalloidin) and the microtubules (stained with an antibody recognizing α-Tubulin). The actin cytoskeleton outlining the neuron was used as a reference point to measure retraction of microtubules from the distal part of the processes towards the cell body.
To test the resistance of microtubules to depolymerization, we applied the drug Nocodazole to stage 3 neurons, followed by fixation [in 3.7% PFA/Sucrose, 0.25% Glutaraldehyde, 1×PHEM-buffer and 0.1% Triton X-100] after a brief incubation (FIG. 2 A). Nocodazole is known to disrupt microtubules by binding to β-Tubulin and […], thus inhibiting microtubule dynamics. After fixation, neurons were doublestained for F-Actin and α-Tubulin or acetylated and tyrosinated α-Tubulin. Fluorescence microscopy and CCD imaging was used to quantify retraction of microtubules from the distal end of processes or distribution of posttranslational modifications of α-Tubulin after partial depolymerization of the microtubule cytoskeleton.

[5] = test system: lesioned dorsal column (CNS) axons; assay: Taxol application 24 hours after dorsal column lesion: regenerating sprouts; assay type: in vivo, mice
From the text: (§3) We used an Olympus SZX-12 fluorescent stereomicroscope equipped with 1× Plan Apochromat objective and 1.6× Plan Fluorite objective (Olympus). The ColorView II camera integrated to the microscope was used to capture images through Analysis FIVE software (Soft Imaging System). Animals were anesthetized as described. After removing the laminae at T11/12 level, a small unilateral lesion was applied with the vannas spring scissors (FST) by transecting only the superficial axons of the dorsal columns. We imaged the injury site before and after lesion by acquiring serial images. The animals were kept on a heating pad during the imaging session.
(§4) A small unilateral spinal cord lesion at T12 level was performed as described. 10 μl of 1 μM or 5 μM taxol (Sigma-Aldrich, diluted in Saline) or saline as control was applied onto the lesion site each hour starting immediately after or 24 hours after lesioning. The lesion sites were visualized by in vivo imaging as described. The animals' anesthesia was boosted after 3 hours. At the end of the observation period animals were perfused and prepared for the confocal imaging as described.
The length of the sprouts quantified on confocal images. The length of all sprouts including sprouts emerging from sprouts measured and summed up for final value. As number of sprouts, only primary sprouts emerging from directly axonal shaft were quantified.

astrocytes = assay: Astrocyte numbers in taxol treated cultures; assay type: cell-based
[6] = test system: lesioned dorsal column (CNS) axons; assay: Taxol application immediately after dorsal column lesion: retraction bulb formation, in vivo imaging; design: species or system GFP-M mice
From the text: as §3, §4, §2
The distance of taxol and saline treated axons to the lesion site was quantified as follows: The lesion site was outlined from the in vivo binocular images. We then measured the distance of the axonal tips to the proximal edge of the lesion.

neurons = conditions: CNS; cited from earlier work
[7] = 5 μM Nocodazole, brief incubation
[8] = stage 2 neurons (1 DIV), 3.3 μM Nocodazole

## CCC(=O)O[C@H]1C[C@H]2OC[C@@]2(OC(C)=O)[C@H]2[C@H](OC(=O)c3ccccc3)[C@]3(O)C[C@H](OC(=O)[C@H](O)[C@@H](NC(=O)OC(C)(C)C)c4ccco4)C(C)=C([C@@H](O)C(=O)[C@]12C)C3(C)C [MAC-321, 5beta, 20-epoxy-1, 2alpha-, 4-, 7beta-, 10beta-, 13alpha-hexahydroxytax-11-en-9-one 4 acetate 2 benzoate 7-propionate 13-ester with (2R,3S)—N-tertbutoxycarbonyl-3-(2-furyl)isoserine]
[1]
  Lethal dose: 140 mg/kg

## COC(=O)Nc1nc2ccc(C(=O)c3cccs3)cc2[nH]1 [Nocodazole]
Rat hippocampal neurons [2]; 15 nM Nocodazole from 1 DIV
  number of processes per cell: 3.58±0.08
Rat hippocampal neurons [2]; 45 nM Nocodazole
  increase of total neurite length from day 1 to day 3 in vitro: more than 3 fold
  total neurite length: 197.31 μm
Rat hippocampal neurons [2]; 45 nM Nocodazole from 1 DIV
  number of processes per cell: 2.64±0.08
Rat hippocampal neurons [2]; 75 nM Nocodazole
  increase of total neurite length from day 1 to day 3 in vitro: > 2 fold
  total neurite length: 134.89 μm
Rat hippocampal neurons [2]; 75 nM Nocodazole from 1 DIV
  number of processes per cell: 2.20±0.18
[3]; 10 μl of 330 μM nocodazole 24 h after sciatic nerve crush, evaluated 24 h after treatment
  axons that transformed their growth cones into a bulb: 42.3%±13.2% and 45%±13%
[3]; 10 μl of 330 μM nocodazole, 24 h after treatment
  tip/axon shaft ratio of nocodazole induced retraction bulbs: 4.25±0.56
Rat hippocampal neurons [4]; [7]
  microtubule retraction of minor neurites: 12.47±2.221 μm
  retraction of axonal microtubules: 8.89 μm
Rat hippocampal neurons [4]; [8]
  average microtubule retraction of the remaining minor neurites: 13.71±2.84 μm
  microtubule retraction in the minor neurite with the lowest retraction: 4.50±1.27 μm
Rat hippocampal neurons [4]; 3.3 μM Nocodazole
  cells in which microtubule retraction was significantly higher in minor neurites compared to axons: 59.3±6.9%
Rat hippocampal neurons [4]; 5 μM Nocodazole
  cells in which microtubule retraction was significantly higher in minor neurites compared to axons: 60%±5.1%

## CC(=O)O[C@H]1C(=O)[C@@]2(C)[C@H]([C@H](OC(=O)c3ccccc3)[C@]3(O)C[C@H](OC(=O)[C@H](O)[C@@H](NC(=O)c4ccccc4)c4ccccc4)C(C)=C1C3(C)C)[C@]1(OC(C)=O)CO[C@@H]1C[C@@H]2O [Taxol, Tax-11-en-9-one, 5beta,20-epoxy-1,2alpha,4,7beta, 10beta,13alpha-hexahydroxy-, 4,10-diacetate 2-benzoate, 13-ester with (2R,3S)—N-benzoyl-3-phenylisoserine (8Cl)]
Rat hippocampal neurons [2]; 3 nM Taxol from 1 DIV
  number of processes which exceeded 60 μm: 2.93±0.46
Rat hippocampal neurons [2]; 10 nM Taxol
  cells with more than one Tau-1-positive process: 80.81±1.71%
Rat hippocampal neurons [2]; 10 nM Taxol from 1 DIV
  number of processes which exceeded 60 μm: 3.58±0.54
Rat hippocampal neurons [2]; 10 nM Taxol versus DMSO
  increase of the number of cells with more than one Tau-1-positive process: about 4 fold
Rat hippocampal neurons [2]; Taxol treatment versus DMSO
  increase of the number of processes which exceeded 60 μm: more than 2 fold
[5]; 5 μM taxol, 48 h post injury
  animals in which the extended retraction bulb with filopodia like extensions was observed: 4 out of 12
  sprout terminals with extended retraction bulb with several filopodia like extensions: 8.9%±5.0%
  sprout terminals with slim growth cone morphology: 57%±20%
  sprout terminals with small retraction bulb morphology: 41.8%±16.6%
[5]; 10 μl of 5 μM taxol once each hour, 4-5 times, from 24 h post injury, read 48 h post injury
  total number of the sprouts from one axon: 7.83±1.79
astrocytes
  astrocyte numbers: drastic reduction in astrocyte numbers
[6]; 1 μM taxol, 5 biggest retraction bulbs per animal, 6 hours
  tip/axon ratio of retraction bulbs formed during treatment: 2.53±0.54
[6]; 1 μM taxol, 6 hours after injury
  animals with proximal axonal stumps as close as 25 μm to the injury site: 6 out of 11
[6]; 10 μl of 1 μM taxol once per hour from immediately after injury, first 6 hours
  axons that developed retraction bulbs (tip/axon ratio >2): 22.8%±13.1%
neurons
  neuronal death: induces dose-dependent neuronal death
Rat hippocampal neurons [4]; 10 nM Taxol for 24 h, then 5 μM Nocodazole briefly
  microtubule retraction in Taxol-induced axon-like processes: 7.48±1.761 μm
